Experimental data from ChEMBL document CHEMBL1201862, “PubChem BioAssay data set” (2004).
The source made the active and inactive calls.

Legend:
[1] = Vero cell cytotoxicity, dose response, cytotoxicity control for Vif-APOBEC3G degradation inhibitor project, Vero cells (AID 1117358); type: functional; conditions: Human immunodeficiency virus 1, Vero
Kallikrein-7 = Kallikrein-7 (Homo sapiens, UniProt P49862); test: Fluorescence Intensity-based biochemical primary high throughput dose response assay to identify activators of kallikrein-7 (K7) zymogen.
Kallikrein-7, sequence (P49862 whole entry): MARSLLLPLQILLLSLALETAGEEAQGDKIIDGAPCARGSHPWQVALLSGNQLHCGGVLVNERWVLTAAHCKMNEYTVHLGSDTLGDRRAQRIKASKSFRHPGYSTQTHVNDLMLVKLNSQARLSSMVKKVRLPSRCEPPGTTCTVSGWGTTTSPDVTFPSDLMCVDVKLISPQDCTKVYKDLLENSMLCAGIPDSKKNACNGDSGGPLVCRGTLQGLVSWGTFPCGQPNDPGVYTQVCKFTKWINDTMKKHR

[2] = target: 1-phosphatidylinositol 4,5-bisphosphate phosphodiesterase beta-3 (Homo sapiens, UniProt Q01970); test: Fluorescence-based biochemical high throughput dose response assay to identify inhibitors of phospholipase C isozymes (PLC-B3).
1-phosphatidylinositol 4,5-bisphosphate phosphodiesterase beta-3, sequence (Q01970 whole entry): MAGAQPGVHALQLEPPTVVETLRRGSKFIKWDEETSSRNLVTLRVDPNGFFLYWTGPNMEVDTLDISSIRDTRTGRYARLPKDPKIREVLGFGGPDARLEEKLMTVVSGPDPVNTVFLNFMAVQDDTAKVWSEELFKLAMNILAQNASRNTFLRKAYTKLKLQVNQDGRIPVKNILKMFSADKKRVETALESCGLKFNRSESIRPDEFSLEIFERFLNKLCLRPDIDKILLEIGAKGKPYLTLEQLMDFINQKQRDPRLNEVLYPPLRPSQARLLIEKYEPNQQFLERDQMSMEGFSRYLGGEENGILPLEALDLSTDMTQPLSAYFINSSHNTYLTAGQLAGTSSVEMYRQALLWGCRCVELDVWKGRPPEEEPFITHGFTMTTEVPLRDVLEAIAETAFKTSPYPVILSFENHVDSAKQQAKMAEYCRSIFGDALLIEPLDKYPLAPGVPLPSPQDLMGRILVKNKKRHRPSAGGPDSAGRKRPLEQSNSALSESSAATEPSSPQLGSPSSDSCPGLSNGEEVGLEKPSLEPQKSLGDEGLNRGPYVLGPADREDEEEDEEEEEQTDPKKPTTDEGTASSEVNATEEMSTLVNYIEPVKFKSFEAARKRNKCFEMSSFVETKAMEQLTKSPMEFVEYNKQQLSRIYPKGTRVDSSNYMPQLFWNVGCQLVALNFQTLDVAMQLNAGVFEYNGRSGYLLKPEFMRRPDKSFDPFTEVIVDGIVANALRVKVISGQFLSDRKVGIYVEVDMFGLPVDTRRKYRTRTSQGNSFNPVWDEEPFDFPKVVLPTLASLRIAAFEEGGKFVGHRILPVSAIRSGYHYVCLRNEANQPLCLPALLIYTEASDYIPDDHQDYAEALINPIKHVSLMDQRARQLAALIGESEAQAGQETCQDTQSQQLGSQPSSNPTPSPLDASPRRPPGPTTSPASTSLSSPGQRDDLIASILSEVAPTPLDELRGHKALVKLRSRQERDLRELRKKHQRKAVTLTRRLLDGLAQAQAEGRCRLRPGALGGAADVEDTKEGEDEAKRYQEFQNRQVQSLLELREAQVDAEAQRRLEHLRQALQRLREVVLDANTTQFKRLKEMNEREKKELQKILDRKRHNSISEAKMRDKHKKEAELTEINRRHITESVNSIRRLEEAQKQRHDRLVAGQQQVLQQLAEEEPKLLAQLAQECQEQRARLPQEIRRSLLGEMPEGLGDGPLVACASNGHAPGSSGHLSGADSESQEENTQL

[3] = target: 1-phosphatidylinositol 4,5-bisphosphate phosphodiesterase gamma-1 (Homo sapiens, UniProt P19174); test: Counterscreen for inhibitors of phospholipase C isozymes (PLC-B3): Fluorescence-based biochemical high throughput dose response assay to identify inhibitors of phospholipase C isozymes (PLC-gamma1).
[4] = P. falciparum late gametocyte killing, dose response, luminescence (AID 1117278); type: functional, cell-based;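 further: gametocytes exposed to compound for 24 hours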
[5] = target: T1, Ubiquitin-conjugating enzyme E2 N (Homo sapiens, UniProt P61088); type: functional;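 further: Dose-response confirmation in a TR-FRET assay detecting UBC13-driven polyubiquitin chain formation, inhibition measured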
T1 sequence (P61088 whole entry): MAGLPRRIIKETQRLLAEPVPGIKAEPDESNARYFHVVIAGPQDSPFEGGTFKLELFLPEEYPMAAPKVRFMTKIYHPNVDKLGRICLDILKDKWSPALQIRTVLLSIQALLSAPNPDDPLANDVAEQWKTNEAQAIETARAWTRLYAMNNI

[6] = Jurkat T cell cytotoxicity, dose response, cytotoxicity control for P. falciparum gametocyte viability project, luminescence (AID 1117277); type: functional, cell-based;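 further: potency reflects loss of cellular ATP meaning fewer viable cells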
[7] = Shn3 3'UTR reporter inhibitors, dose response, cell-based, Clone20 osteoblasts, firefly luciferase, cherry-picked (AID 624132); type: functional;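 further: firefly luciferase luminescence from reporter carrying the Shn3 3'UTR in osteoblasts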
[8] = CEM21 lymphoblast cell cytotoxicity, dose response, cytotoxicity control for viral fusion inhibitor project, CellTiter-Glo luminescence, cherry-picked (AID 652042); type: functional, cell-based;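 further: potency for signal decrease meaning cytotoxicity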
[9] = inhibitors of clade B AD8 Env fusion, dose response, cell-based, cherry-pick (AID 652062); type: functional;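 further: luciferase signal from cell-cell fusion driven by HIV-1 clade B AD8 Env; potency is for inhibitors of fusion seen as a drop in luminescence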
[10] = HepG2 cell cytotoxicity, dose response, cytotoxicity control for Shn3 inhibitor project, CellTiter-Glo, cherry-picked (AID 624134); type: functional, cell-based
[11] = control 3'UTR Renilla luciferase suppression, dose response, counter-screen for Shn3 inhibitor project, cell-based, Clone20-Shn3RL, cherry-picked (AID 624133); type: functional
[12] = target: E3 ubiquitin-protein ligase UHRF1 (Homo sapiens, UniProt Q96T88); test: Counterscreen for inhibitors of 5-meCpG-binding domain protein 2 (MBD2): TRFRET-based biochemical high throughput dose response assay to identify inhibitors of binding of ubiquitin-like with PHD and ring finger domains 1 (UHRF1) to methylated oligonucleotide.
E3 ubiquitin-protein ligase UHRF1, sequence (Q96T88 whole entry, the tested form may be a part): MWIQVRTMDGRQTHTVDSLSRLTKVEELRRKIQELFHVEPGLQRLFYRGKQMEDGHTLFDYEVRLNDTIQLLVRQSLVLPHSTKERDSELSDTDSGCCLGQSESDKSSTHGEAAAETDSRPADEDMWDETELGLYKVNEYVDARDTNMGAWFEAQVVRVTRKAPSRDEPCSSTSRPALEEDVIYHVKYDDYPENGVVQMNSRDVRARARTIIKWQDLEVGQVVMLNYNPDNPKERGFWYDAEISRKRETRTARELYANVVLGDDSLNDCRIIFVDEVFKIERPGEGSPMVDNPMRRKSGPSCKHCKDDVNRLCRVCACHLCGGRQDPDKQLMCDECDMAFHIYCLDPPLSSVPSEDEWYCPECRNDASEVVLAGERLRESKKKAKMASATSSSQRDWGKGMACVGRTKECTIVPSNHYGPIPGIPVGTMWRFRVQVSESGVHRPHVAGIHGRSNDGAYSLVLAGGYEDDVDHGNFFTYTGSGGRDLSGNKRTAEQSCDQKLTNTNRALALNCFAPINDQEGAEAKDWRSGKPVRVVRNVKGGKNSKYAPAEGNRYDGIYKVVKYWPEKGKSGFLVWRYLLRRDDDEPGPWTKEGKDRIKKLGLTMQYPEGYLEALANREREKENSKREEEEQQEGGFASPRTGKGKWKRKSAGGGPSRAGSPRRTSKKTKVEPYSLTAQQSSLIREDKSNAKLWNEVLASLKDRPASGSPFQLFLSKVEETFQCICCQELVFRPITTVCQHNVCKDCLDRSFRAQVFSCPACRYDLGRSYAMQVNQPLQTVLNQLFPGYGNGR

cells [13] = type: functional, cell-based
cells [14] = type: functional, cell-based; remark: listed apart in the source
INS1 = test: beta cell apoptosis inhibitors, cytokine rescue, dose response, luminescence, retest (AID 449756); type: functional, cell-based; conditions: Rattus norvegicus;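 further: cell death triggered by IL-1 beta plus TNF-alpha plus IFN-gamma mixture; protective hits raise ATP signal compared with cytokine alone wells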
[15] = target: DNA (cytosine-5)-methyltransferase 1 (Homo sapiens, UniProt P26358); test: DNMT1 methyltransferase inhibitors, confirmation, biochemical, fluorescent molecular beacon (AID 602386); type: functional
[16] = cytotoxicity toward NIH3T3 fibroblasts, dose response, counter-screen, cell-based, ATP luminescence, mouse fibroblasts (AID 2010); type: functional;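 further: cells exposed to compound for about 90 hours before reading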
[17] = target: T2, DNA repair protein RAD52 homolog (Homo sapiens, UniProt P43351); type: functional, biochemical
T2 sequence (P43351 whole entry): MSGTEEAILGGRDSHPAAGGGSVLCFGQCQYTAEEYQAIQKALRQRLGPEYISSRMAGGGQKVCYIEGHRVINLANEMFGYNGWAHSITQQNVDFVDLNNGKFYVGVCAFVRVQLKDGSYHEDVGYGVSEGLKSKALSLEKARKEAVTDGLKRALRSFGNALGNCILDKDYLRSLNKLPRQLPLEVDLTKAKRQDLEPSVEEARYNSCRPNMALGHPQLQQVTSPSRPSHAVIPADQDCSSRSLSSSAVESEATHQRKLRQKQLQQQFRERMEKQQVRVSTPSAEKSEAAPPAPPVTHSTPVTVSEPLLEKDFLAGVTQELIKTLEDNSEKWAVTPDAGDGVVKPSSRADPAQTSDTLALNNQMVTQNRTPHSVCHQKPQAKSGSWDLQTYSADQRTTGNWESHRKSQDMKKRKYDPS

[18] = Counterscreen for activators of the function of SWI/SNF related, matrix associated, actin dependent regulator of chromatin, subfamily a, member 2 (SMARCA2, BRM): Luminescence-based cell-based high throughput dose response assay to identify non-selective compounds using the VP16 reporter assay.; type: functional
[19] = target: SWI/SNF-related matrix-associated actin-dependent regulator of chromatin subfamily A member 2 (Homo sapiens, UniProt P51531); test: Luminescence-based cell-based high throughput dose response assay to identify activators of the function of SWI/SNF related, matrix associated, actin dependent regulator of chromatin, subfamily a, member 2 (SMARCA2, BRM).; type: functional
SWI/SNF-related matrix-associated actin-dependent regulator of chromatin subfamily A member 2, sequence (P51531 whole entry): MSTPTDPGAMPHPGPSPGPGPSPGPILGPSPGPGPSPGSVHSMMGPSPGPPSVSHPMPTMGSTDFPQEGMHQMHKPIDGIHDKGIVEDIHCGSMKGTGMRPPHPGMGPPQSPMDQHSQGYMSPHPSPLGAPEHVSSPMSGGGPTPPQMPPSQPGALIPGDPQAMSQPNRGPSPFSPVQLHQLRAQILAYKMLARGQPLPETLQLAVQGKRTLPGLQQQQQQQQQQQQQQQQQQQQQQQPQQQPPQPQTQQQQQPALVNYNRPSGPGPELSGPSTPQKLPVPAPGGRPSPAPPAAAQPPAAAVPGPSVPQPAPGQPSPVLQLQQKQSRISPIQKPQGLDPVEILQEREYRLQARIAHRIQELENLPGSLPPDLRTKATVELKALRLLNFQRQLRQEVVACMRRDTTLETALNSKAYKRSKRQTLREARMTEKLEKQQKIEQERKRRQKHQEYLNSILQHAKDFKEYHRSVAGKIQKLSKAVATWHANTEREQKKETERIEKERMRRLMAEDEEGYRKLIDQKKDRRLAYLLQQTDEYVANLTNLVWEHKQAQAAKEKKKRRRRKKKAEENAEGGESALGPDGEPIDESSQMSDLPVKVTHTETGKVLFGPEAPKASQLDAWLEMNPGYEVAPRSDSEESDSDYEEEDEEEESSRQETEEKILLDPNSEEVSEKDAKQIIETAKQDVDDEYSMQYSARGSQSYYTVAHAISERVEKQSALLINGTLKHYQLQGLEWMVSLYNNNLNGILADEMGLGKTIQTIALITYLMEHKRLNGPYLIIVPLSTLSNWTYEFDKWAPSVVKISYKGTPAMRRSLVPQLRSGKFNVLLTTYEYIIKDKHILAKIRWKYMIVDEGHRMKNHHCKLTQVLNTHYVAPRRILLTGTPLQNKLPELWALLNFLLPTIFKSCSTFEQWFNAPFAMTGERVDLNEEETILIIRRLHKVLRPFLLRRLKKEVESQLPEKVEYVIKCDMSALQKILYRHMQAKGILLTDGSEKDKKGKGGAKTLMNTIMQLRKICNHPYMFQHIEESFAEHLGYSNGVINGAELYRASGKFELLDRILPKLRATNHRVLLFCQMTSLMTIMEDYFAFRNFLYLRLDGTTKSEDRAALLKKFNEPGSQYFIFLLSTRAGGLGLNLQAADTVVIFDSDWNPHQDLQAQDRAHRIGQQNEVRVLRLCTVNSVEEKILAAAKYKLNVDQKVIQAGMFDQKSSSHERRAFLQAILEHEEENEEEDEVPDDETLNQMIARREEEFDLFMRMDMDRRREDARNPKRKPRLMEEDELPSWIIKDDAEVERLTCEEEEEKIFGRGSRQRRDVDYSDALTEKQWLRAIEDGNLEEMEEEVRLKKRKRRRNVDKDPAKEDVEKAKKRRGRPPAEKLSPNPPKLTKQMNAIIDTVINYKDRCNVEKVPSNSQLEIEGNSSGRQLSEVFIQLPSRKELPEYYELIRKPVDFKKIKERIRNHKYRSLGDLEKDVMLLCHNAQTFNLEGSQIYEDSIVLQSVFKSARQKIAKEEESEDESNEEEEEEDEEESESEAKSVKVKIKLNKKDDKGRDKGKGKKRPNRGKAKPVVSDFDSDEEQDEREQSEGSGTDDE

[20] = inhibitors of intracellular T. cruzi replication, confirmation, NIH3T3 host cells, beta-gal luminescence (AID 2044); type: functional, cell-based;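 further: intracellular parasites grown in NIH/3T3 mouse fibroblasts as host cells; luminescent beta-galactosidase reporter signal from transgenic T. cruzi replicating inside host cells; inhibitors lower the luminescence signal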
cells [21] = type: functional, cell-based; conditions: HEK-CNG
Galanin receptor type 3 = Galanin receptor type 3 (Homo sapiens, UniProt O60755); test: Fluorescence-based cell-based primary high throughput dose response assay to identify antagonists of the Galanin Receptor 3 (GalR3).; type: functional
Galanin receptor type 3, sequence (O60755 whole entry): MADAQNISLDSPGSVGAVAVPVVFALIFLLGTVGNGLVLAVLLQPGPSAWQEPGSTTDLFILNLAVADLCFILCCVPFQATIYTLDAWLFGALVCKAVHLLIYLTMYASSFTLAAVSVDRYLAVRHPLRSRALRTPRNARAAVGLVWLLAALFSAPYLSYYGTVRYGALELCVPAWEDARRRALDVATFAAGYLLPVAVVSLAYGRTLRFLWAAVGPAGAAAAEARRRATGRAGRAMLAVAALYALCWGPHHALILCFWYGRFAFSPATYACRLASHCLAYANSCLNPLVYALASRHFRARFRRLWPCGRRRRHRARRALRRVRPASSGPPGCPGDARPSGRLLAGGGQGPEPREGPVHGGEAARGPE

[22] = target: T3, COUP transcription factor 2 (Homo sapiens, UniProt P24468); test: Luminescence-based cell-based high throughput dose response assay to identify inhibitors of COUP-TFII (NR2F2).; type: functional;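 further: HEK293 cells transiently cotransfected with COUP-TFII expression vector and reporter; luciferase reporter luminescence driven by COUP-TFII from the pX2-168 reporter plasmid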
T3 sequence (P24468 whole entry): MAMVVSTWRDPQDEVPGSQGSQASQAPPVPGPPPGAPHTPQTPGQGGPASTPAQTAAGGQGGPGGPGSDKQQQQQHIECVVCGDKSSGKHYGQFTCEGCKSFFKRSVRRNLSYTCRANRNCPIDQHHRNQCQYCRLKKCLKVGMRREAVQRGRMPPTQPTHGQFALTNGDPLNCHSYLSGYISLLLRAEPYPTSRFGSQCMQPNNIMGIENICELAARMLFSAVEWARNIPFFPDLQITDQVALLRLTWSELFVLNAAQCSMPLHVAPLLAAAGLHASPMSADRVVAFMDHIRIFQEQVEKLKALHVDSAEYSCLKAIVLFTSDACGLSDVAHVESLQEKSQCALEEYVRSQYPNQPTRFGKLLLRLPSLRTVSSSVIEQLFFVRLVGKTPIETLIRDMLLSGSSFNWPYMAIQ

[23] = target: RNA-editing ligase 1, mitochondrial (Trypanosoma brucei brucei, UniProt P86926); test: TbREL1 ligase inhibitors, dose response, biochemical, fluorescence, Trypanosoma brucei (AID 1117295); type: functional
[24] = target: Disintegrin and metalloproteinase domain-containing protein 17 (Homo sapiens, UniProt P78536); test: ADAM17 protease inhibitors, dose response, counter-screen for ADAM10 exosite inhibitor project, biochemical, quenched FRET substrate (AID 743253)
Disintegrin and metalloproteinase domain-containing protein 17, sequence (P78536 whole entry, the tested form may be a part): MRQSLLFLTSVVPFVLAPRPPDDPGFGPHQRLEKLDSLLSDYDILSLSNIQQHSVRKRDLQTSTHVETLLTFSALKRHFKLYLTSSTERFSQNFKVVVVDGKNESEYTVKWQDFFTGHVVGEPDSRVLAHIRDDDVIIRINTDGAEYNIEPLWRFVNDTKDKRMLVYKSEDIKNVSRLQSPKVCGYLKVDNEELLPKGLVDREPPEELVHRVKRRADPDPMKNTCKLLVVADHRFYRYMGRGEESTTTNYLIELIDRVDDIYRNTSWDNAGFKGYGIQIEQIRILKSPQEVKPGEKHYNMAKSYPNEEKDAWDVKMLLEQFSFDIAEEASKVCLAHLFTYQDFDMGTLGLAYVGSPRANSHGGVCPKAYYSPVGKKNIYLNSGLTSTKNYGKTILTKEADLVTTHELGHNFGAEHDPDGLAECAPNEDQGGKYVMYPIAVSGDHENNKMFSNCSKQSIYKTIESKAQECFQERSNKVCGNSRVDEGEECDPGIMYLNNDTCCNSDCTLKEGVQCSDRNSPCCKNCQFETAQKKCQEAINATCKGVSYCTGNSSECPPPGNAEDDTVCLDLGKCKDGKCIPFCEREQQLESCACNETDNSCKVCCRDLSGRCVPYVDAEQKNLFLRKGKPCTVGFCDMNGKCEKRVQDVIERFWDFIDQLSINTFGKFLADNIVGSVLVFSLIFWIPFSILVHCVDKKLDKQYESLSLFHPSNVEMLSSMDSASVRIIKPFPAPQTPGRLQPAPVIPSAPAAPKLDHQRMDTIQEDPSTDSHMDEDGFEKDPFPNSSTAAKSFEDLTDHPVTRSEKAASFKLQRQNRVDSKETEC

[25] = ADAM10 inhibitors, peptide cleavage, dose response, biochemical, QFRET (AID 743254);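 further: ADAM10 enzyme with the DM2 quenched FRET peptide as substrate; EDANS fluorescence gain as the protease cuts the substrate; inhibitor potency against ADAM10 proteolytic activity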

Question: With `Cc1ccc(C)c(S(=O)(=O)Nc2ccc3scnc3c2)c1` as the compound, how does the CC50 [1] read?
Answer: > 40 µM (active)

Question: With `O=C1c2ccccc2NC(c2ccccc2)N1Cc1ccco1` (stereo unspecified) as the compound, how does the EC50 (Kallikrein-7) read?
Answer: > 69.5 µM (inactive)

Question: Which IC50 [2] does the source give for `COc1cc(C(=O)Nc2ccc3c(c2)C(=O)N(CCC(=O)O)C3=O)cc(OC)c1OC` here?
Answer: > 122 µM (inactive)

Question: And the IC50 [3]?
Answer: > 122 µM (inactive)

Question: For `Cc1cc(C)c2nc(-c3ccccn3)cc(C(=O)n3cccn3)c2c1`, which IC50 [4] is on record?
Answer: > 109 µM (inactive)

Question: And the IC50 [5]?
Answer: > 20 µM (inactive)

Question: What about the IC50 [6] of the same compound?
Answer: > 83.2 µM (inactive)

Question: With `O=C(Nc1ccccn1)C1CCN(S(=O)(=O)c2cccc3nonc23)CC1` as the compound, how does the IC50 [4] read?
Answer: > 109 µM (inactive)

Question: What about the IC50 [6] of the same compound?
Answer: > 83.3 µM (inactive)

Question: With `Nc1nonc1C(=O)NCCNCc1cc(Br)ccc1OCc1ccccc1F` as the compound, how does the AC50 [7] read?
Answer: 2.5 µM (active)

Question: What about the AC50 [8] of the same compound?
Answer: 40.5 µM (active)

Question: And the AC50 [9]?
Answer: 14.9 µM (active)

Question: And the AC50 [10]?
Answer: 40.4 µM (active)

Question: And the AC50 [11]?
Answer: 0.91 µM (active)

Question: With `CCN(CC)CCC(=O)Nc1cccc2c1C(=O)c1ccccc1C2=O` as the compound, how does the IC50 [12] read?
Answer: > 43.8 µM (inactive)

Question: And the EC50 (cells [13])?
Answer: 59.3 µM (active)

Question: And the EC50 (cells [14])?
Answer: > 350 µM (not active)

Question: And the AC50 (INS1)?
Answer: 4.28 µM (active)

Question: What about the IC50 [15] of the same compound?
Answer: 6.86 µM (active)

Question: And the EC50 [16]?
Answer: 13.4 µM (active)

Question: And the AC50 [17]?
Answer: 0.801 µM (active)

Question: And the EC50 [18]?
Answer: > 91.3 µM (inactive)

Question: And the EC50 [19]?
Answer: 9.64 µM (active)

Question: What about the EC50 [20] of the same compound?
Answer: 0.61 µM (active)

Question: With `Cc1ccccc1Cn1c(C)nc2ccccc21` as the compound, how does the EC50 (cells [21]) read?
Answer: > 29.9 µM (inactive)

Question: What about the IC50 (Galanin receptor type 3) of the same compound?
Answer: 0.331 µM (active)

Question: And the IC50 [22]?
Answer: 13.2 µM (inactive)

Question: For `CC[C@@H](C)[C@@H]1CN([C@@H](C)CN2CCC[C@H]2CN2C(N)=NC[C@H]2C(C)C)C(=N)N1CCc1ccc(Cl)c(Cl)c1`, which IC50 [23] is on record?
Answer: > 96.6 µM (inactive)

Question: What about the IC50 [5] of the same compound?
Answer: > 20 µM (inactive)

Question: Which IC50 [24] does the source give for `CCCCCCNC(=O)O[C@H]1Cn2c(=O)n(CCCCCC)c(=O)n2[C@@H]2CN(S(=O)(=O)c3ccc(C)cc3)C[C@]12O` here?
Answer: > 69.5 µM (inactive)

Question: And the IC50 [25]?
Answer: 10.3 µM (inactive)
